Results reported in patent US20250340549A1, “BICYCLIC HETEROAROMATIC INHIBITORS OF NICOTINAMIDE N-[…], AND COMPOSITIONS AND USES THEREOF” (President and Fellows of Harvard College, priority 2021, published 2025).

How the values were obtained:
[1] = target: T1, recombinant human NNMT (Homo sapiens, UniProt P40261); experiment: In vitro NNMT enzyme inhibition assay (Promega MTase-Glo Methyltransferase Assay); format: biochemical; conditions: compared with compound 1
T1 sequence (P40261 1-264): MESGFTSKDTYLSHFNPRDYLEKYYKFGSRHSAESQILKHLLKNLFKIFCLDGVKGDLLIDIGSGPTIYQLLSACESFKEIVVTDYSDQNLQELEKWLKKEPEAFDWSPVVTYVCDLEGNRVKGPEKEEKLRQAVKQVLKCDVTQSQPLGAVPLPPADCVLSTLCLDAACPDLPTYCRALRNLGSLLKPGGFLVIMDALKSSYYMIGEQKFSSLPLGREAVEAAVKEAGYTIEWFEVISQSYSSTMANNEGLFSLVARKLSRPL
Method: NNMT biochemical activity for was evaluated for compound 1 (FIG. 1), compound 2 (FIG. 2), compound 6 (FIG. 3), compound 8 (FIG. 4), compound 14 (FIG. 5), compound 16 (FIG. 6), and compound 13 (FIG. 12), using the Promega Mtase-Glo Methyltransferase Assay kit. Compounsd 4A (FIG. 7) and 4B (FIG. 8) were also tested in the assay.
Assays were performed in a white, flat-bottomed 96 well plate. […] Reactions were performed for 20 minutes at room temperature. MTase-Glo reagent and MTase-Glo detection solution were added according to manufacturer's instructions and luminescence signal measured with a SpectraMax i3 plate reader and data analyzed with GraphPad Prism version 9. Scheme 10 depicts a visual summary of the Promega MTase-Glo Methyltransferase assay used to assess biochemical activity of novel inhibitors.

[2] = in vitro
Method: A master solution was prepared according to the following table.
40 μL of 10 mM NADPH solution was added to each well. The final concentrations of NADPH was 1 mM. The mixture was pre-warmed at 37° C. for 5 minutes. The negative control samples were prepared by replacing NADPH solutions with 40 μL of ultra-pure H2O. The negative control was used to exclude the misleading factor that resulted from instability of chemical itself. Samples with NADPH were prepared in duplicate. Negative controls were prepared in singlet.
The reaction was started with the addition of 4 μL of 200 uM control compound or test compound solutions. […] The reaction was stopped by the addition of 4 volumes of cold acetonitrile with IS (100 nM alprazolam, 200 nM imipramine, 200 nM labetalol and 2 uM ketoprofen). Samples were centrifuged at 3, 220 g for 40 minutes. Aliquot of 90 μL of the supernatant was mixed with 90 μL of ultra-pure H2O and then used for LC-MS/MS analysis.
For metabolite standard samples: 1 μL of 400 uM working solution was added to 89 μL master solution following by adding 400 μL of cold acetonitrile with internal standard (IS) (100 nM alprazolam, 200 nM Imipramine, 200 nM labetalol and 2 uM ketoprofen). Then 10 μL of 10 mM NADPH solution or ultra-pure H2O was added to the mixture. Samples were centrifuged at 3,220 g for 40 minutes to precipitate protein. Aliquots of 90 μL supernatant diluted by 90 μL of water was used for LC-MS/MS analysis.

[3] = Mouse PK study (IV and PO) in female C57B16/N; format: in vivo; conditions: for Tmax: iv
Method: Doses were freshly prepared on the day of dosing. Vehicle compositions of each dose are listed below. For IV, an appropriate amount of the test article was dissolved in the vehicle with vortexing and/or sonication to achieve a solution with the intended concentration level. For PO, an appropriate amount of the test article was dissolved in the appropriate vehicle; vortex and/or sonication can be used to achieve a solution formulation with the intended concentration level. • IV: 0.5% Tween 80 in saline • PO: 0.2% Tween 80/10% PEG-300 in water. Adjust pH with IN hydrochloric acid to obtain a clear solution
(§1) After dosing, 0.03 mL blood samples were collected from the dorsal metatarsal vein (0.2 mL at final time point via heart puncture) at the following time points: • IV: pre-dose, 0.0833, 0.25, 0.5, 1, 2, 4, 6, 8, 24 hours post dose • PO: pre-dose, 0.25, 0.5, 1, 2, 4, 6, 8, 24 hours post dose
(§2) Blood from each sample was transferred into plastic micro centrifuge tubes with EDTAK2 as an anticoagulant. The blood samples were centrifuged at 4,000 g for 5 minutes at 4° C. to obtain plasma. Samples were immediately frozen in the upright position and stored at −75±15° C. prior to analysis.
Samples were analyzed on a AB Sciex Triple Quad 5500 LC/MS/MS instrument using a Gemini 5 μm C18 110A 150×3 mm column (XBridge BEH C18 2.5 μm 4.6×75 mm in the case of JBSNF-000265) with the following equipment installed.
The mobile phase A was 0.1% formic acid in water, and the mobile phase B was 95% acetonitrile in water (0.1% formic acid), delivered at 0.4 mL/min.
Sample Preparation: The desired serial concentrations of working solutions were achieved by diluting stock solution of analyte with 50% acetonitrile in water solution. 5 μL of working solutions (1, 2, 3, 5, 10, 50, 100, 500, 1000 ng/ml) were added to 5 μL of the blank C57B16/N mouse plasma to achieve calibration standards of 1˜1000 ng/ml (1, 2, 3, 5, 10, 50, 100, 500, 1000 ng/ml) in a total volume of 10 μL. Four quality control samples at 3 ng/mL, 5 ng/mL, 100 ng/mL, and 800 ng/mL for plasma were prepared independently of those used for the calibration curves. These QC samples were prepared on the day of analysis in the same way as calibration standards.
(§3) 10 μL of standards, 10 μL of QC samples and 10 μL of unknown samples (5 μL of plasma with 5 μL of blank solution) were added to 100 μL of acetonitrile (containing D4-1-MNA 50 ng/mL) for precipitating protein respectively. Then the samples were vortexed for 30 s. After centrifugation at 4 degree Celsius, 4,000 rpm for 15 min, the supernatant was diluted 3 times with water. 10 μL of diluted supernatant (20 μL in the case of JBSNF-000265) was injected into the LC/MS/MS system for quantitative analysis.

[4] = tested on: 1-MNA; experiment: 1-MNA plasma PK parameters in mouse after dosing with compound; format: in vivo; conditions: plasma 1-MNA, female C57B16/N
Method: as §1, §2
Sample Preparation: 1-Methylnicotinamide (1-MNA): The desired serial concentrations of working solutions were achieved by diluting stock solution of analyte with 50% acetonitrile in water solution. 5 μL of working solutions (1, 2, 3, 5, 10, 50, 100, 500, 1000 ng/mL) were added to 5 μL of water to achieve calibration standards of 1˜1000 ng/ml (1, 2, 3, 5, 10, 50, 100, 500, 1000 ng/ml) in a total volume of 10 μL. Four quality control samples at 3 ng/ml, 5 ng/mL, 100 ng/mL, and 800 ng/ml for water were prepared independently of those used for the calibration curves. These QC samples were prepared on the day of analysis in the same way as calibration standards.
as §3, with “D4-1-MNA 100” for “D4-1-MNA 50”, “Celsius, 4000” for “Celsius, 4,000”, “water. 5” for “water. 10”, “supernatant” for “supernatant (20 μL in the case of JBSNF-000265)”

[5] = mouse, plasma, 1 mg/kg (Table 5B, title: IV Dosage)
[6] = mouse, plasma, 10 mg/kg (Table 5B, title: IV Dosage)
[7] = mouse, plasma, 50 mg/kg (Table 5B, title: IV Dosage)

SMILES: CNc1cc2ccncc2cn1
- activity in the enzyme assay (in words) [1]: significantly less active

SMILES: CNc1cc2cc[nH]c(=O)c2cn1
- activity in the enzyme assay (in words) [1]: substrate (not inhibitor)

SMILES: CNc1cc2ccnc(N)c2cn1 [Compound 1]
- Predicted hepatic CL ([2]; human, 2 uM): <5.12 mL/min/kg
- CLint scaled at 2 uM ([2]; human, microsomes): < 6.79 mL/min/kg
- half-life at 2 uM ([2]; human, microsomes): > 256 min
- microsomal CLint at 2 uM ([2]; human, microsomes): < 5.42 µL/min/mg
- Remaining (%) at 60 minutes ([2]; human, microsomes, 1 h, 2 uM): 86.23%
- % Q (mice): percent of compound remaining after 60 minutes of exposure to liver microsomes ([2]; male, C57B16/N, mouse, microsomes, 1 h, 2 uM): 46.35%
- Predicted hepatic CL ([2]; male, mouse, 2 uM): 50.12 mL/min/kg
- CLint scaled at 2 uM ([2]; male, mouse, microsomes): 113 mL/min/kg
- half-life at 2 uM ([2]; male, mouse, microsomes): 53.6 min
- microsomal CLint at 2 uM ([2]; male, mouse, microsomes): 25.9 µL/min/mg
- Remaining (%) at 60 minutes ([2]; male, mouse, microsomes, 1 h, 2 uM): 46.35%
- % Q (human): percent of compound remaining after 60 minutes of exposure to liver microsomes ([2]; microsomes, 1 h, 2 uM): 86.23%
- AUC% Extrap—obs ([3]; 3 mg/kg IV): 0.666%
- AUClast/D ([3]; 3 mg/kg IV): 97 ng·h/mL per mg/kg
- Cl_obs ([3]; 3 mg/kg IV): 173 mL/min/kg
- F ([3]; 10 mg/kg): 10.3%
- F ([3]; 50 mg/kg): 32.4%
- AUC(0-t) [3, 5]: 97 ng·h/mL
- Cmax [3, 5]: 3.66 ng/mL
- half-life [3, 5]: 255 min
- AUC(0-inf) ([3]; mouse, plasma, 3 mg/kg IV): 292 ng·h/mL
- AUC(0-t) ([3]; mouse, plasma, 3 mg/kg IV): 290 ng·h/mL
- C0 ([3]; mouse, plasma, 3 mg/kg IV): 864 ng/mL
- half-life ([3]; mouse, plasma, 3 mg/kg IV): 25.5 min
- MRT inf ([3]; mouse, plasma, 3 mg/kg IV, read-out: MRTInf—obs): 20.8 min
- AUC(0-t) [3, 6]: 96.4 ng·h/mL
- Cmax [3, 6]: 145 ng/mL
- half-life [3, 6]: 143 min
- AUC(0-t) [3, 7]: 1540 ng·h/mL
- Cmax [3, 7]: 1350 ng/mL
- half-life [3, 7]: 473 min
- Tmax ([3]; mouse, plasma, 10 mg/kg): 15 min
- Tmax ([3]; mouse, plasma, 50 mg/kg): 20 min
- AUClast of 1-MNA ([4]; 3 mg/kg IV): 1463 ng·h/mL
- AUClast of 1-MNA ([4]; 10 mg/kg PO): 934 ng·h/mL
- AUClast of 1-MNA ([4]; 50 mg/kg PO): 814 ng·h/mL
